The results in this text go back to patent US20260365646A1, “AKT1 MODULATORS” (Alterome Therapeutics, Inc., priority 2022, published 2026).

T1 sequence (P31749 whole entry E17K): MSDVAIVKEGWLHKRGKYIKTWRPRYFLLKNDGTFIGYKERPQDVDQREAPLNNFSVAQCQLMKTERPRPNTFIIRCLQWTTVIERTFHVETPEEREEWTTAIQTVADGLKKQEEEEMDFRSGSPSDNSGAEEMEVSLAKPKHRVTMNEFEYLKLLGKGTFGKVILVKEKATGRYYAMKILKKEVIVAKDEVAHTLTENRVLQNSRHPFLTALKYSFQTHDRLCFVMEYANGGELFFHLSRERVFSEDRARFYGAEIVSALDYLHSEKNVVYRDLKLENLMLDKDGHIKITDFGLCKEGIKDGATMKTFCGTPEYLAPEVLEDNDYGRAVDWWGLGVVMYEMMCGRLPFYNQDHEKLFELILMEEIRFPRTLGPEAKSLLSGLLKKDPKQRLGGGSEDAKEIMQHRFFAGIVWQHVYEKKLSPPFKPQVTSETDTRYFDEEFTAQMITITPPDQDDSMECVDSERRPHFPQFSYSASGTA

The first experiment addresses T1, full length AKT E17K (Homo sapiens, UniProt P31749, E17K).
T1 construct: host or cells: HEK-293 (ATCC CRL-1573)
The experiment is described as follows: NanoBRET Target Engagement (TE) Intracellular Kinase Assay. It counts as cell-based.
Conditions: not given
The source says:
The NanoBRET™ Target Engagement (TE) Intracellular Kinase Assays are based on the NanoBRET™ System (Promega Corporation), an energy transfer technique designed to measure molecular proximity in living cells. The NanoBRET™ TE Assays measure the apparent affinity of test compounds by competitive displacement of the NanoBRET™ tracer compound, which is a cell permeable molecule engineered to be reversibly bound to a NanoLuc® luciferase-kinase fusion expressed in cells. For compound screening, when a test compound binds to the selected kinase, the BRET signal is attenuated. […] All cells were evaluated for viability prior to transfection and optimization of the transfection was done prior to experimentation. […] Following transfection, cells were washed and resuspended in Opti-MEM. NanoBRET assays were performed in white, 384-well plates (Corning) at a density of 2×10^5 cells/well. All example compounds were prepared as concentrated stock solutions in DMSO (Sigma-Aldrich). Compounds are dissolved in DMSO to make 10 mM stock solution. […] A Labcyte ECHO 550 compound dispenser was used to facilitate compound transfer directly to cells. Cells were equilibrated for 2 hr with energy transfer probes and example compound prior to BRET measurements. […] For target engagement analysis, the energy transfer probes were added to the cells at concentrations optimized for the target in question (AKT E17K). Following compound incubation, NanoBRET NanoGlo Substrate (Promega Cat #Ni57D) and Extracellular Nanoluc Inhibitor (Promega Cat #N235C) was added according to the manufacturer's recommended protocol, and luminescence was measured on Envision Reader (Perkin Elmer) Multimode Luminometer equipped with 450 nm BPfilter (donor) and 600 nm LPfilter (acceptor), using 0.5 s integration time. Milli-BRET units (mBU) are calculated by multiplying the raw BRET values by 1000. Apparent tracer affinity values (EC50) were determined using the sigmoidal dose-response (variable slope). Competitive displacement data were then plotted and data were fit to determine the EC50 value for each example compound.
Take `COc1c(N2CCCC3(CCN(Cc4ccc(-n5c(-c6cccnc6N)nc6ccc(-c7ccccc7)nc65)cc4)CC3)C2)c(=O)c1=O` [Example 31, 3-(9-(4-(2-(2-Aminopyridin-3-yl)-5-phenyl-3H-imidazo[4,5-b]pyridin-3-yl)benzyl)-2,9-diazaspiro[5.5]undecan-2-yl)-4-methoxycyclobut-3-ene-1,2-dione]: the EC50 fell in the range of 15 to 60 nM.

`Nc1ncccc1-c1nc2ccc(-c3ccccc3)nc2n1-c1ccc(CN2CCC(N3CCCOc4c3c(=O)c4=O)C2)cc1` (stereo not shown) [Example 82, 6-(1-(4-(2-(2-aminopyridin-3-yl)-5-phenyl-3H-imidazo[4,5-b]pyridin-3-yl)benzyl)pyrrolidin-3-yl)-2-oxa-6-azabicyclo[5.2.0]non-1(7)-ene-8,9-dione] registered an EC50 of 60 to 600 nM.

For `Nc1ncccc1-c1nc2ccc(-c3ccccc3)nc2n1-c1ccc(CN2CCC(Nc3c(OC4CCCC4)c(=O)c3=O)CC2)cc1` [Example 14, 3-((1-(4-(2-(2-Aminopyridin-3-yl)-5-phenyl-3H-imidazo[4,5-b]pyridin-3-yl)benzyl)piperidin-4-yl)amino)-4-(cyclopentyloxy)cyclobut-3-ene-1,2-dione], the EC50 fell in the range of 60 to 600 nM.

Compound `Nc1ncccc1-c1nc2ccc(-c3ccccc3)nc2n1-c1ccc(CN2CCN3c4c(c(=O)c4=O)OCC[C@H]3C2)cc1` [Example 89, (S)-7-(4-(2-(2-aminopyridin-3-yl)-5-phenyl-3H-imidazo[4,5-b]pyridin-3-yl)benzyl)-5,5a,6,7,8,9-hexahydro-4H-cyclobuta[b]pyrazino[1,2-d][1,4]oxazepine-1,2-dione] yielded an EC50 of over 600 nM.

Regarding `COc1c(N2CCN(Cc3ccc(-n4c(-c5cccnc5N)nc5ccc(-c6cccc(NC(C)=O)c6)nc54)cc3)CC2)c(=O)c1=O` [Example 7, N-(3-(2-(2-Aminopyridin-3-yl)-3-(4-((4-(2-methoxy-3,4-dioxocyclobut-1-en-1-yl)piperazin-1-yl)methyl)phenyl)-3H-imidazo[4,5-b]pyridin-5-yl)phenyl)acetamide], the EC50 was 15 to 60 nM.

As for `CCSc1c(N2CCC3(CC2)CN(Cc2ccc(-n4c(-c5cccnc5N)nc5ccc(-c6ccccc6)nc54)cc2)C3)c(=O)c1=O` [Example 61, 3-(2-(4-(2-(2-Aminopyridin-3-yl)-5-phenyl-3H-imidazo[4,5-b]pyridin-3-yl)benzyl)-2,7-diazaspiro[3.5]nonan-7-yl)-4-(ethylthio)cyclobut-3-ene-1,2-dione], the EC50 lay in the range of 15 to 60 nM.

In the case of `Nc1ncccc1-c1nc2ccc(-c3ccccc3)nc2n1-c1ccc(CN2CCC(Nc3c(OC4CCCC4)c(=S)c3=O)CC2)cc1` [Example 15, 2-((1-(4-(2-(2-Aminopyridin-3-yl)-5-phenyl-3H-imidazo[4,5-b]pyridin-3-yl)benzyl)piperidin-4-yl)amino)-3-(cyclopentyloxy)-4-thioxocyclobut-2-en-1-one], the EC50 is 60 to 600 nM.

Compound `COc1c(N2CCN(Cc3ccc(-n4c(-c5cccnc5N)nc5cc(-c6ccccc6)cnc54)cc3)CC2)c(=O)c1=O` [Example 9, 3-(4-(4-(2-(2-Aminopyridin-3-yl)-6-phenyl-3H-imidazo[4,5-b]pyridin-3-yl)benzyl)piperazin-1-yl)-4-methoxycyclobut-3-ene-1,2-dione] yielded an EC50 of 60 to 600 nM.

For `Nc1ncccc1-c1nc2ccc(-c3ccccc3)nc2n1-c1ccc(CN2CCC(Nc3c(OC4CCCC4)c(=S)c3=S)CC2)cc1` [Example 16, 3-((1-(4-(2-(2-Aminopyridin-3-yl)-5-phenyl-3H-imidazo[4,5-b]pyridin-3-yl)benzyl)piperidin-4-yl)amino)-4-(cyclopentyloxy)cyclobut-3-ene-1,2-dithione], the EC50 is 60 to 600 nM.

The compound `COc1c(NCc2ccc(-n3c(-c4cccnc4N)nc4cccnc43)cc2)c(=O)c1=O` [Example 2, 3-((4-(2-(2-Aminopyridin-3-yl)-3H-imidazo[4,5-b]pyridin-3-yl)benzyl)amino)-4-methoxycyclobut-3-ene-1,2-dione] returned an EC50 of over 600 nM.

For `CCOc1c(NC2CCN(Cc3ccc(-n4c(-c5cccnc5N)nc5ccc(-c6ccccc6)nc54)cc3)CC2)c(=O)c1=O` [Example 12, 3-((1-(4-(2-(2-Aminopyridin-3-yl)-5-phenyl-3H-imidazo[4,5-b]pyridin-3-yl)benzyl)piperidin-4-yl)amino)-4-ethoxycyclobut-3-ene-1,2-dione], the EC50 was in the range of 15 to 60 nM.

The compound `COc1c(N2CCN(Cc3ccc(-n4c(-c5cccnc5N)nc5ccc(-c6ccccc6)nc54)cc3)CC23CC3)c(=O)c1=O` [Example 37, 3-(7-(4-(2-(2-Aminopyridin-3-yl)-5-phenyl-3H-imidazo[4,5-b]pyridin-3-yl)benzyl)-4,7-diazaspiro[2.5]octan-4-yl)-4-methoxycyclobut-3-ene-1,2-dione] yielded an EC50 of 15 to 60 nM.

Still in this experiment, the particulars now being: read-out: NanoBRET AKT1E17K EC50; HEK-293 cells transfected with NanoLuc-AKT E17K; competitive displacement of NanoBRET tracer; 2 hr equilibration; 10-point 3-fold dilution.
For `COc1c(N2CC3(CCN(Cc4ccc(-n5c(-c6cccnc6N)nc6ccc(-c7ccccc7)nc65)cc4)C3)C2)c(=O)c1=O` [Example 55, 3-(6-(4-(2-(2-Aminopyridin-3-yl)-5-phenyl-3H-imidazo[4,5-b]pyridin-3-yl)benzyl)-2,6-diazaspiro[3.4]octan-2-yl)-4-methoxycyclobut-3-ene-1,2-dione], the EC50 is under 15 nM.

As to `CSc1c(N2C[C@H]3CN(Cc4ccc(-n5c(-c6cccnc6N)nc6ccc(-c7ccccc7)nc65)cc4)C[C@H]3C2)c(=O)c1=O` [Example 87, 3-((3aR,6aS)-5-(4-(2-(2-aminopyridin-3-yl)-5-phenyl-3H-imidazo[4,5-b]pyridin-3-yl)benzyl)hexahydropyrrolo[3,4-c]pyrrol-2(1H)-yl)-4-(methylthio)cyclobut-3-ene-1,2-dione], the EC50 was under 15 nM.

With `COc1c(N2CCCN(Cc3ccc(-n4c(-c5cccnc5N)nc5ccc(-c6ccccc6)nc54)cc3)CC2)c(=O)c1=O` [Example 38, 3-(4-(4-(2-(2-Aminopyridin-3-yl)-5-phenyl-3H-imidazo[4,5-b]pyridin-3-yl)benzyl)-1,4-diazepan-1-yl)-4-methoxycyclobut-3-ene-1,2-dione], the EC50 was under 15 nM.

For the compound `CCSc1c(N(C)N2CCN(Cc3ccc(-n4c(-c5cccnc5N)nc5ccc(-c6ccccc6)nc54)cc3)CC2)c(=O)c1=O` [Example 97, 3-((4-(4-(2-(2-aminopyridin-3-yl)-5-phenyl-3H-imidazo[4,5-b]pyridin-3-yl)benzyl)piperazin-1-yl)(methyl)amino)-4-(ethylthio)cyclobut-3-ene-1,2-dione], the EC50 was under 15 nM.

For `COc1c(NC2CCN(Cc3ccc(-n4c(-c5cccnc5N)nc5ccc(-c6cccc(NC(C)=O)c6)nc54)cc3)CC2)c(=O)c1=O` [Example 8, N-(3-(2-(2-Aminopyridin-3-yl)-3-(4-((4-((2-methoxy-3,4-dioxocyclobut-1-en-1-yl)amino)piperidin-1-yl)methyl)phenyl)-3H-imidazo[4,5-b]pyridin-5-yl)phenyl)acetamide], the EC50 is under 15 nM.

As to `COc1c(N2CCC3(CC2)CN(Cc2ccc(-n4c(-c5cccnc5N)nc5ccc(-c6ccccc6)nc54)cc2)C3)c(=O)c1=O` [Example 60, 3-(2-(4-(2-(2-Aminopyridin-3-yl)-5-phenyl-3H-imidazo[4,5-b]pyridin-3-yl)benzyl)-2,7-diazaspiro[3.5]nonan-7-yl)-4-methoxycyclobut-3-ene-1,2-dione], the EC50 is under 15 nM.

For `COc1c(NC2CCC3(CC2)CN(Cc2ccc(-n4c(-c5cccnc5N)nc5ccc(-c6ccccc6)nc54)cc2)C3)c(=O)c1=O` [Example 98, 3-((2-(4-(2-(2-aminopyridin-3-yl)-5-phenyl-3H-imidazo[4,5-b]pyridin-3-yl)benzyl)-2-azaspiro[3.5]nonan-7-yl)amino)-4-methoxycyclobut-3-ene-1,2-dione], the EC50 is under 15 nM.

Take `CCSc1c(NC2CCN(Cc3ccc(-n4c(-c5cccnc5N)nc5ccc(-c6ccccc6)nc54)cc3)CC2)c(=O)c1=O` [Example 39, 3-((1-(4-(2-(2-Aminopyridin-3-yl)-5-phenyl-3H-imidazo[4,5-b]pyridin-3-yl)benzyl)piperidin-4-yl)amino)-4-(ethylthio)cyclobut-3-ene-1,2-dione]: the EC50 was under 15 nM.

With `COc1c(N2C[C@H]3C[C@@H]2CN3Cc2ccc(-n3c(-c4cccnc4N)nc4ccc(-c5ccccc5)nc43)cc2)c(=O)c1=O` [Example 76, 3-((1R,4R)-5-(4-(2-(2-aminopyridin-3-yl)-5-phenyl-3H-imidazo[4,5-b]pyridin-3-yl)benzyl)-2,5-diazabicyclo[2.2.1]heptan-2-yl)-4-methoxycyclobut-3-ene-1,2-dione], the EC50 is under 15 nM.

On to `[2H]C([2H])([2H])N(c1c(OC)c(=O)c1=O)C1CCN(Cc2ccc(-n3c(-c4cccnc4N)nc4ccc(-c5ccccc5)nc43)cc2)CC1` [Example 100, 3-((1-(4-(2-(2-aminopyridin-3-yl)-5-phenyl-3H-imidazo[4,5-b]pyridin-3-yl)benzyl)piperidin-4-yl)(methyl-d3)amino)-4-methoxycyclobut-3-ene-1,2-dione], for which the EC50 was under 15 nM.
